Format in all cases: functional
Holding throughout (details): read-out: DIZ

Experiment [1] deals with Klebsiella pneumoniae. As to the kind of experiment: Antibacterial activity against Klebsiella pneumoniae MTCC 109 at 30 ug/ml after overnight incubation by disk diffusion method. (In general: Agar diffusion results depend on both activity and mobility in agar.)
For experiment [2], the system named is Proteus vulgaris. As to the kind of experiment: Antibacterial activity against Proteus vulgaris MTCC 1771 at 30 ug/ml after overnight incubation by disk diffusion method.
For experiment [3], the system named is Escherichia coli. As to the kind of experiment: Antibacterial activity against Escherichia coli MTCC 722 at 30 ug/ml after overnight incubation by disk diffusion method.
Experiment [4] deals with Staphylococcus aureus. As to the kind of experiment: Antibacterial activity against Staphylococcus aureus MTCC 96 at 30 ug/ml after overnight incubation by disk diffusion method.
In experiment [5] the test system is Bacillus subtilis. As to the kind of experiment: Antibacterial activity against Bacillus subtilis MTCC 619 at 30 ug/ml after overnight incubation by disk diffusion method.
Experiment [6] relates to Bacillus subtilis. As to the kind of experiment: Antibacterial activity against Bacillus subtilis MTCC 619 at 75 ug/ml after overnight incubation by disk diffusion method.
Experiment [7] deals with Klebsiella pneumoniae. As to the kind of experiment: Antibacterial activity against Klebsiella pneumoniae MTCC 109 at 75 ug/ml after overnight incubation by disk diffusion method.
Experiment [8] concerns Escherichia coli. As to the kind of experiment: Antibacterial activity against Escherichia coli MTCC 722 at 75 ug/ml after overnight incubation by disk diffusion method.
Experiment [9] has as its system Staphylococcus aureus. As to the kind of experiment: Antibacterial activity against Staphylococcus aureus MTCC 96 at 75 ug/ml after overnight incubation by disk diffusion method.
The test system of experiment [10] is Proteus vulgaris. As to the kind of experiment: Antibacterial activity against Proteus vulgaris MTCC 1771 at 75 ug/ml after overnight incubation by disk diffusion method.

The text below walks through data of ChEMBL document CHEMBL3045896, “Synthesis of novel porphyrin-based lipids and their antibacterial activity” (2011).

On to `O=C(N[C@H](CO)[C@H](O)c1ccc([N+](=O)[O-])cc1)C(Cl)Cl` [CHLORAMPHENICOL], for which the zone of inhibition at 30 µg/mL is 24 mm with Klebsiella pneumoniae [1]; 14 mm in the experiment on Proteus vulgaris [2]; 31 mm in the experiment with Escherichia coli [3]; 23 mm in the experiment on Staphylococcus aureus [4]; 23 mm in the experiment with Bacillus subtilis [5].

Take `CCCCCCCCCCCCCCCCC/C1=c2\cc/c([nH]2)=C(\CCCCCCCCCCCCCCCCC)C2=N/C(=C\C3=NC(=CC3)/C=C3/C=CC1=N3)C=C2`: the zone of inhibition at 75 µg/mL with Bacillus subtilis [6] turned out to be 14 mm; in the experiment with Klebsiella pneumoniae [7], 10 mm; with Escherichia coli [8], 13 mm; in the experiment on Staphylococcus aureus [9], 13 mm; in the experiment with Proteus vulgaris [10], 12 mm.

As to `CCCCCCCCCCCCCCCCN(CCCCCCCCCCCCCCCC)Cc1c2nc(cc3ccc(cc4nc(cc5ccc1[nH]5)C=C4)[nH]3)C=C2`, the zone of inhibition at 75 µg/mL in the experiment with Bacillus subtilis [6] was 16 mm; with Klebsiella pneumoniae [7], 12 mm; with Escherichia coli [8] it was 14 mm; in the experiment on Staphylococcus aureus [9], 15 mm; with Proteus vulgaris [10] it was 14 mm.
